Assays:
[1] = Incorporation of BCNU into GMO gel without disruption of the three-dimensional structure; format: physicochemical; conditions: physiologic temperature
Source text: The drug, such as BCNU, releases from the semisolid through diffusion, conceivably in a biphasic manner. A first phase involves, for example, a lipophilic drug contained within the lipophilic membrane diffuses therefrom into the aqueous channel 15. The second phase involves diffusion of the drug from the aqueous channel 15 into the external environment. Being lipophilic, BCNU orients itself inside the GMO gel within its proposed lipid bi-layer structure. Thus, incorporating greater than approximately 7.5% BCNU by weight into GMO causes a loss of the integrity of the three-dimensional structure whereby the gel system no longer maintains the semisolid cubic phase, and reverts to the viscous lamellar phase liquid.
It is possible to incorporate approximately 7.5% BCNU by weight into GMO gel at physiologic temperature without disruption of the normal three-dimensional structure. In addition, an average glioma tumor measures approximately 3 centimeters in diameter and equates to approximately 14 cubic centimeters in volume. As a result, approximately 11.5 to 12.0 grams of GMO gel may be implanted into the resection pocket. This equates to a possible drug dosage of approximately 900 milligrams with maximal drug. As stated earlier, the clinically recommended dose of BCNU delivered by Gliadel® Wafers to date is approximately 65 milligrams.

[2] = Miscibility of GMS in H2O; format: physicochemical
Source text: It is recognized that alternative semisolids, modified formulations and methods of production exist such that the lipophilic nature of the semisolid can be altered, or in the alternative, the aqueous channels 15 contained within the semisolid can be altered. Thus, various therapeutic agents in varying concentrations may diffuse from the semisolid at differing rates, or be released therefrom over time via the aqueous channels 15 of the semisolid. Hydrophilic substances may be utilized to alter semisolid consistency or drug release by alteration of viscosity, fluidity, surface tension or the polarity of the aqueous component. […] However, because GMS is a surfactant, GMS is miscible in H2O up to approximately 20% weight/weight. For purposes of this disclosure, the term “surfactant” means surface active agent, thus being miscible in H2O in limited concentrations as well as polar substances. Upon heating and stirring, the 80% H2O/20% GMS combination produces a spreadable paste having a consistency resembling hand lotion.

Compound	BCNU incorporated into GMO gel without disruption of the normal three-dimensional structure [1]	miscibility in H2O [2] [% weight/weight]
O=NN(CCCl)C(=O)NCCCl [BCNU, 1,3-bis[2-chloroethyl]-1-nitrosourea]	approximately 7.5 % by weight	–
CCCCCCCCCCCCCCCCCC(=O)OCC(O)CO (centres unmarked) [GMS, glyceryl monostearate]	–	≤ 20
